Laboratory results: patent US12655116B2, “Substituted isophthalic acid diamides” (Bayer Aktiengesellschaft, priority 2020, dated 2026)

How the values were obtained:
ABUTH [1] = assay: Pre-emergence herbicidal action against ABUTH; assay type: in vivo, Abutilon theophrasti; details: Abutilon theophrasti, 504 h
Method in brief: (§1)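 Visual rating at 3 weeks vs untreated pots; 0–100% scale, 100% = plants died. Treatment: aqueous WP/EC spray onto covering soil, 600–800 l/ha, 0.2% wetter, seeds in sandy loam.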

ALOMY [2] = assay: Pre-emergence herbicidal action against ALOMY; assay type: in vivo, Alopecurus myosuroides; details: Alopecurus myosuroides, 504 h; 80 g/ha, pre-emergence, scored visually after 3 weeks vs untreated controls (100% = plants have died, 0% = like control plants)
Method in brief: as §1

AMARE [3] = assay: Pre-emergence herbicidal action against AMARE; assay type: in vivo, Amaranthus retroflexus; details: Amaranthus retroflexus, 504 h, scored visually after 3 weeks vs untreated controls, 100% = plants have died, 0% = like control plants
Method in brief: as §1

AVEFA [4] = assay: Pre-emergence herbicidal action against AVEFA; assay type: in vivo, Avena fatua; details: Avena fatua, 504 h, pre-emergence
Method in brief: as §1

ECHCG [5] = assay: Pre-emergence herbicidal action against ECHCG; assay type: in vivo, Echinochloa crus-galli; details: Echinochloa crus-galli, 504 h, 80 g/ha
Method in brief: as §1

HORMU [6] = assay: Pre-emergence herbicidal action against HORMU; assay type: in vivo, Hordeum murinum; details: Hordeum murinum, 504 h; 80 g/ha, pre-emergence
Method in brief: as §1

MATIN [7] = assay: Pre-emergence herbicidal action against MATIN; assay type: in vivo, Matricaria inodora; details: Tripleurospermum inodorum, 504 h
Method in brief: as §1

PHBPU [8] = assay: Pre-emergence herbicidal action against PHBPU; assay type: in vivo, Pharbitis purpurea; details: Ipomoea purpurea, 504 h
Method in brief: as §1

POLCO [9] = assay: Pre-emergence herbicidal action against POLCO; assay type: in vivo, Polygonum convolvulus; details: Fallopia convolvulus, 504 h, dosage 80 g/ha
Method in brief: as §1

SETVI [10] = assay: Pre-emergence herbicidal action against SETVI; assay type: in vivo, Setaria viridis; details: Setaria viridis, 504 h
Method in brief: as §1

STEME [11] = assay: Pre-emergence herbicidal action against STEME; assay type: in vivo, Stellaria media; details: Stellaria media, 504 h
Method in brief: as §1

VIOTR [12] = assay: Pre-emergence herbicidal action against VIOTR; assay type: in vivo, Viola tricolor; details: Viola tricolor, 504 h
Method in brief: as §1

DIGSA [13] = assay: Pre-emergence herbicidal action against DIGSA; assay type: in vivo, Digitaria sanguinalis; details: Digitaria sanguinalis, 504 h
Method in brief: as §1

ABUTH [14] = assay: Post-emergence herbicidal action against ABUTH; assay type: in vivo, Abutilon theophrasti; details: Abutilon theophrasti, 504 h, visual assessment about 3 weeks after treatment vs untreated controls
Method in brief: (§2)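 Greenhouse pot plants in sandy loam were sprayed at the one-leaf stage, 2 to 3 weeks after sowing, with WP or EC formulations as aqueous suspension or emulsion (600 to 800 l/ha water, 0.2% wetting agent). About 3 weeks later, damage was scored visually against untreated controls as % action (100% = dead, 0% = like control).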

ALOMY [15] = assay: Post-emergence herbicidal action against ALOMY; assay type: in vivo, Alopecurus myosuroides; details: Alopecurus myosuroides, 504 h, dosage 20 g/ha, visual assessment about 3 weeks after treatment vs untreated controls
Method in brief: as §2

AMARE [16] = assay: Post-emergence herbicidal action against AMARE; assay type: in vivo, Amaranthus retroflexus; details: Amaranthus retroflexus, 504 h, 20 g/ha, visual assessment about 3 weeks after treatment, 100% = plants have died, 0% = like control plants
Method in brief: as §2

AVEFA [17] = assay: Post-emergence herbicidal action against AVEFA; assay type: in vivo, Avena fatua; details: Avena fatua, 504 h, 20 g/ha, visual assessment about 3 weeks after treatment, 100% = plants have died, 0% = like control plants
Method in brief: as §2

ECHCG [18] = assay: Post-emergence herbicidal action against ECHCG; assay type: in vivo, Echinochloa crus-galli; details: Echinochloa crus-galli, 504 h
Method in brief: as §2

HORMU [19] = assay: Post-emergence herbicidal action against HORMU; assay type: in vivo, Hordeum murinum; details: Hordeum murinum, 504 h, dosage 20 g/ha
Method in brief: as §2

MATIN [20] = assay: Post-emergence herbicidal action against MATIN; assay type: in vivo, Matricaria inodora; details: Tripleurospermum inodorum, 504 h
Method in brief: as §2

PHBPU [21] = assay: Post-emergence herbicidal action against PHBPU; assay type: in vivo, Pharbitis purpurea; details: Ipomoea purpurea, 504 h
Method in brief: as §2

POLCO [22] = assay: Post-emergence herbicidal action against POLCO; assay type: in vivo, Polygonum convolvulus; details: Fallopia convolvulus, 504 h, dosage 20 g/ha
Method in brief: as §2

SETVI [23] = assay: Post-emergence herbicidal action against SETVI; assay type: in vivo, Setaria viridis; details: Setaria viridis, 504 h
Method in brief: as §2

STEME [24] = assay: Post-emergence herbicidal action against STEME; assay type: in vivo, Stellaria media; details: Stellaria media, 504 h
Method in brief: as §2

VIOTR [25] = assay: Post-emergence herbicidal action against VIOTR; assay type: in vivo, Viola tricolor; details: Viola tricolor, 504 h, 20 g/ha
Method in brief: as §2

DIGSA [26] = assay: Post-emergence herbicidal action against DIGSA; assay type: in vivo, Digitaria sanguinalis; details: Digitaria sanguinalis, 504 h
Method in brief: as §2

Q: What does the source list for `CCNC(=O)c1c(C(F)(F)F)ccc(C(=O)Nc2nnnn2CC)c1C` [Example 2-26]?
A: pest or weed control at 80 g/ha (ABUTH [1]; 80 g/ha, scored visually after 3 weeks vs untreated controls (100% = plants have died, 0% = like control plants)): 100%; pest or weed control at 20 g/ha (ABUTH [1]; dosage 20 g/ha, scored visually after 3 weeks vs untreated controls, 100% = plants have died, 0% = like control plants, read-out: Pre-emergence action against ABUTH (herbicidal activity in percent)): 100%; pest or weed control at 80 g/ha (ALOMY [2]): 100%; pest or weed control at 20 g/ha (AMARE [3]; 20 g/ha): 100%; pest or weed control at 80 g/ha (AMARE [3]; 80 g/ha): 100%; pest or weed control at 80 g/ha (AVEFA [4]; 80 g/ha): 100%; pest or weed control at 20 g/ha (AVEFA [4]; 20 g/ha, scored visually after 3 weeks, 100% = plants have died, 0% = like control plants): 80%; pest or weed control at 80 g/ha (ECHCG [5]): 100%; pest or weed control at 80 g/ha (HORMU [6]): 90%; pest or weed control at 20 g/ha (MATIN [7]; dosage 20 g/ha): 100%; pest or weed control at 80 g/ha (MATIN [7]; dosage 80 g/ha): 100%; pest or weed control at 20 g/ha (PHBPU [8]; dosage 20 g/ha): 90%; pest or weed control at 80 g/ha (PHBPU [8]; dosage 80 g/ha): 100%; pest or weed control at 80 g/ha (POLCO [9]): 80%; pest or weed control at 20 g/ha (SETVI [10]; dosage 20 g/ha): 80%; pest or weed control at 80 g/ha (SETVI [10]; dosage 80 g/ha): 100%; pest or weed control at 20 g/ha (STEME [11]; dosage 20 g/ha): 100%; pest or weed control at 80 g/ha (STEME [11]; dosage 80 g/ha): 100%; pest or weed control at 20 g/ha (VIOTR [12]; dosage 20 g/ha): 100%; pest or weed control at 80 g/ha (VIOTR [12]; dosage 80 g/ha): 100%; pest or weed control at 20 g/ha (DIGSA [13]; dosage 20 g/ha): 100%; pest or weed control at 80 g/ha (DIGSA [13]; dosage 80 g/ha): 100%; pest or weed control at 5 g/ha (ABUTH [14]; dosage 5 g/ha): 100%; pest or weed control at 20 g/ha (ABUTH [14]; dosage 20 g/ha): 100%; pest or weed control at 20 g/ha (ALOMY [15]): 80%; pest or weed control at 20 g/ha (AMARE [16]): 100%; pest or weed control at 20 g/ha (AVEFA [17]): 80%; pest or weed control at 5 g/ha (ECHCG [18]; dosage 5 g/ha): 80%; pest or weed control at 20 g/ha (ECHCG [18]; dosage 20 g/ha): 80%; pest or weed control at 20 g/ha (HORMU [19]): 80%; pest or weed control at 5 g/ha (MATIN [20]; dosage 5 g/ha): 80%; pest or weed control at 20 g/ha (MATIN [20]; dosage 20 g/ha): 90%; pest or weed control at 5 g/ha (PHBPU [21]; dosage 5 g/ha): 80%; pest or weed control at 20 g/ha (PHBPU [21]; dosage 20 g/ha): 80%; pest or weed control at 20 g/ha (POLCO [22]): 80%; pest or weed control at 5 g/ha (SETVI [23]; dosage 5 g/ha): 80%; pest or weed control at 20 g/ha (SETVI [23]; dosage 20 g/ha): 100%; pest or weed control at 20 g/ha (STEME [24]; 20 g/ha): 90%; pest or weed control at 5 g/ha (STEME [24]; dosage 5 g/ha): 80%; pest or weed control at 20 g/ha (VIOTR [25]): 80%; pest or weed control at 5 g/ha (DIGSA [26]; 5 g/ha): 90%; pest or weed control at 20 g/ha (DIGSA [26]; 20 g/ha): 90%
